Source: publication PMC5722316, “Synthesis of novel purpurealidin analogs and evaluation of their effect on the cancer-relevant potassium channel KV10.1” (PLoS ONE, 2017)
Like-named read-outs stand apart in the source and are kept apart here.

Key:
[1] = system: SH-SY5Y, DU145, LNCaP, NIH-3T3, MDA-MB-435S and hTERT RPE-1 cell lines; experiment: Incucyte Caspase-3/7 apoptosis assay; format: cell-based; conditions: 100 μM, 50 μM and 20 μM; all the cell lines
Method: Cell lines SH-SY5Y (ACC 209), DU145 (ACC 261), LNCaP (ACC 256) and NIH-3T3 (ACC 59) were purchased from DSMZ (Germany). MDA-MB-435S (HTB 129) and hTERT RPE-1 (CRL 4000) were obtained from ATCC (USA). Cell lines were cultured in their recommended media Supplemented with 10% or 15% FCS (PAA laboratories, Germany) at 37°C in humidified 5% CO2 atmosphere. All media were purchased from ThermoFisher Scientific (Waltham, Massachusetts, United States).
Cell proliferation, cytotoxicity and apoptosis were assessed in a 96-well microtiter plate by live-cell imaging using an IncuCyte Zoom System (Essen BioScience, UK). Cell proliferation was monitored in terms of cell confluency (%). Cell cytotoxicity was assessed by the CellTox Green Dye assay (Promega, Madison, Wisconsin, USA). The Incucyte Caspase-3/7 apoptosis assay (Essen BioScience, UK) was used to evaluate the effect of compound 5 on the apoptotic pathway. As negative controls media supplemented with 0.05% of DMSO were used.
Live-cell imaging data were collected from the IncuCyte Zoom software and analyzed using GraphPad Prism 5 software. Proliferation was measured as Phase Object Confluence (%), cytotoxicity and apoptosis were measured as Green Object Count (1/mm^2). All data are represented as mean S.E.M of n = 6 different wells. […]

hKV10.1a = biological target: T1, hKV10.1a (Homo sapiens, UniProt O95259); experiment: Two-electrode voltage-clamp recordings of KV10.1 currents in Xenopus laevis oocytes; format: cell-based
T1 construct: expressed in transfected cells; host or cells: Xenopus laevis oocytes injected with cRNA transcribed from the hKV10.1a-pSGEM plasmid
T1 sequence (O95259 1-962 isoform O95259-2): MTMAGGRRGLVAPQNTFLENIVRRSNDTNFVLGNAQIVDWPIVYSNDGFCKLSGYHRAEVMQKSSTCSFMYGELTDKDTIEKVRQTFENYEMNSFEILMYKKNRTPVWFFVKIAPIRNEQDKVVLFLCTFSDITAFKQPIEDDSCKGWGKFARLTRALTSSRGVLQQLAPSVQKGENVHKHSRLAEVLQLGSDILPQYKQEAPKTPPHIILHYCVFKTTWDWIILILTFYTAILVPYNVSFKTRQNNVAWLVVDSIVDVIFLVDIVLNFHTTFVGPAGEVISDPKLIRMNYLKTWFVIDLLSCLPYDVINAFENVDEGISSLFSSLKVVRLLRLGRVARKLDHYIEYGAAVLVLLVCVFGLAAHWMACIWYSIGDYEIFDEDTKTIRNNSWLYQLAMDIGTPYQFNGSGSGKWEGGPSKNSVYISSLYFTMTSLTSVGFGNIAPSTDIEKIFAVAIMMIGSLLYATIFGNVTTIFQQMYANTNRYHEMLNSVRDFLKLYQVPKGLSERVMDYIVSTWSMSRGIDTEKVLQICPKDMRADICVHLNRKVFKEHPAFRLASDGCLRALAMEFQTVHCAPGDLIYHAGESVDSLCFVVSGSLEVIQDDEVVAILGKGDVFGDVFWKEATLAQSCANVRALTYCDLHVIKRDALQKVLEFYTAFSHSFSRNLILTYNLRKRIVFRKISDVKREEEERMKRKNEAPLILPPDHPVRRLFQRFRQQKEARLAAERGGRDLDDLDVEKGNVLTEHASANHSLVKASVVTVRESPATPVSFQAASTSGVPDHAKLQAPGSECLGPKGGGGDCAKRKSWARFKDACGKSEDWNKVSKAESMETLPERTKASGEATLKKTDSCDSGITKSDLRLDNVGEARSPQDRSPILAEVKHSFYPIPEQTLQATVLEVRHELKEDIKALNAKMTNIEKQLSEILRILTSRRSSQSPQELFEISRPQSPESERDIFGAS
Description: For the expression of hKV10.1a (GeneBank accession number: NM_002238.3) in Xenopus oocytes, the hKV10.1a-pSGEM plasmid was linearized with SfiI (ThermoFisher Scientific, Waltham, Massachusetts, USA) and transcribed using the T7 mMESSAGE-mMACHINE transcription kit (Ambion®, Carlsbad, California, USA).
Stage V-VI Xenopus laevis (African clawed frog) oocytes were isolated by partial ovariectomy. Mature female animals were purchased from Nasco (Fort Atkinson, Wisconsin, USA) and were housed in the Aquatic Facility (KU Leuven) in compliance with the regulations of the European Union (EU) concerning the welfare of laboratory animals as declared in Directive 2010/63/EU. The use of Xenopus laevis was approved by the Animal Ethics Committee of the KU Leuven (Project nr. P038/2017). Prior to harvesting the oocytes, the animals were anesthetized by a 15-min submersion in 0.1% tricaine methanesulfonate (pH 7.0). Isolated oocytes were defolliculated with 1.5 mg/mL collagenase.
Defolliculated oocytes were injected with 4 nL of cRNA at a concentration of 1 ng/nL using a micro-injector (Drummond Scientific®, Broomall, Pennsylvania, USA). The oocytes were incubated in a solution containing (in mM): NaCl, 96; KCl, 2; CaCl2, 1.8; MgCl2, 2 and HEPES, 5 (pH 7.4), supplemented with 50 mg/L gentamycin sulfate.
Two-electrode voltage-clamp recordings were performed at room temperature (18–22°C) using a Geneclamp 500 amplifier (Molecular Devices, USA) controlled by a pClamp data acquisition system (Axon Instruments®, Union City, California, USA). Whole cell currents from oocytes were recorded 1–4 days after injection. Bath solution composition was (in mM): NaCl, 96; KCl, 2; CaCl2, 1.8; MgCl2, 2 and HEPES, 5 (pH 7.5). Voltage and current electrodes were filled with a 3 M solution of KCl in H2O. Resistances of both electrodes were kept between 0.5 and 1.5 MΩ. The elicited KV10.1 currents were filtered at 1 kHz and sampled at 2 kHz using a four-pole low-pass Bessel filter. Leak subtraction was performed using a -P/4 protocol. KV10.1 currents were evoked by 2-s depolarizing pulses to 0 mV from a holding potential of -90 mV unless otherwise indicated.
All electrophysiological data are presented as means ± S.E.M of n ≥ 3 independent experiments unless otherwise indicated. All data was analyzed using pClamp Clampfit 10.4 (Molecular Devices®, Downingtown, Pennsylvania, USA) and OriginPro 8 (Originlab®, Northampton, Massachusetts, USA) or GraphPad Prism 5 software (GraphPad Software, Inc., San Diego, California, USA).

COc1ccc(C(=O)NCCc2cc(Br)c(OCCCN(C)C)c(Br)c2)cc1Cl [Compound 5, 3-Chloro-N-[3,5-dibromo-4-[3-(dimethylamino)propoxy]phenethyl]-4-methoxybenzamide]
caspase-3/7 activity (induction of the apoptotic pathway) [1]: caspase-3/7 activity was detected | remaining current, % of the control current (hKV10.1a; 10 μM added during 20-s continuous step to 30 mV): approximately 50% | reversibility of KV10.1 inhibition (hKV10.1a; 10 μM, wash-out): reversible | effect on KV10.1 inactivation (two-pulse protocol) (hKV10.1a; 10 μM, 1.5-s prepulse -140 mV to 50 mV, 0.5-s test pulse to 30 mV): an apparent inactivation is induced | inhibition at 10 µM (hKV10.1a; 10 μM, 2-s depolarizing pulses to 0 mV from -90 mV, read-out: KV10.1 current inhibition): 51 ± 3% | shift of activation curve (ΔV1/2) to more negative potentials (hKV10.1a; 10 μM, ND96 (2 mM extracellular K+), Boltzmann fit): 21.0 ± 1.6 mV | half-maximal voltage of activation (V1/2) in presence of compound (hKV10.1a; 10 μM, ND96 (2 mM extracellular K+), control V1/2 = 23.2 ± 0.4 mV): 2.1 ± 0.4 mV | slope factor k of activation curve in presence of compound (hKV10.1a; 10 μM, ND96, control k = 15.5 ± 0.4): 13.8 ± 0.3 | time constant (τ) of wash-out (hKV10.1a; 10 μM, one phase association equation): ~ 20 s | exponential time constant (τ) of wash-in (hKV10.1a; 10 μM, one phase decay equation): 5.3 s | inhibition at 10 µM (hKV10.1a; 10 μM, oocyte clamped at -90 mV for 10 minutes, then 2-s pulse to 0 mV, read-out: KV10.1 current inhibition after clamping at -90 mV): 53 ± 4% | KV10.1 current inhibition (hKV10.1a; 40 μM, extracellular perfusion, average ± SEM): 86.9 ± 1.3% | inhibition at 40 µM (hKV10.1a; 40 μM, extracellular perfusion, average ± SEM, read-out: KV10.1 current inhibition): 87 ± 1% | Hill coefficient (hKV10.1a; 8 concentrations 0.04 μM to 80 μM, logistic dose-response fit): 1.6 ± 0.3 | IC50 (hKV10.1a; 8 concentrations 0.04 μM to 80 μM, logistic dose-response fit, read-out: IC50 of KV10.1 current inhibition): 7.7 ± 1 µM | competition plot with mibefradil (hKV10.1a; mixtures p*10 μM 5 and (1-p)*10 μM mibefradil, 7 ratios): compete for the same binding site
